Experimental data reported in the NIST ThermoML archive (doi:10.1021/je400415r).
± gives the expanded uncertainty stated by the source.

Experiment: mn = molality of the nth substance listed, in mol/kg
Details: 101 kPa, Liquid; for speed of sound: Pulse-echo method; for mass density: Vibrating tube method

CCCC(N)C(=O)O (stereo not drawn) [DL-2-aminopentanoic acid] + O
Details	mass density, 288.15 K [kg/m3]	mass density, 298.15 K [kg/m3]	mass density, 308.15 K [kg/m3]	mass density, 318.15 K [kg/m3]	speed of sound, 288.15 K [m/s]	speed of sound, 298.15 K [m/s]	speed of sound, 308.15 K [m/s]	speed of sound, 318.15 K [m/s]
m1 = 0.04497	1000.31 ± 0.041	998.222 ± 0.043	995.183 ± 0.045	991.346 ± 0.048	1471.3 ± 0.78	1501.2 ± 0.78	1523.8 ± 0.77	1540 ± 0.77
m1 = 0.05999	1000.71 ± 0.041	998.611 ± 0.042	995.564 ± 0.045	991.721 ± 0.048	1473 ± 0.78	1502.7 ± 0.78	1525.1 ± 0.77	1541.2 ± 0.77
m1 = 0.07998	1001.24 ± 0.042	999.126 ± 0.042	996.069 ± 0.045	992.218 ± 0.048	1475.1 ± 0.78	1504.6 ± 0.78	1526.9 ± 0.77	1542.8 ± 0.77
m1 = 0.09499	1001.63 ± 0.042	999.511 ± 0.042	996.447 ± 0.045	992.59 ± 0.047	1476.7 ± 0.78	1506.1 ± 0.78	1528.2 ± 0.77	1544 ± 0.77
m1 = 0.11	1002.03 ± 0.042	999.895 ± 0.042	996.823 ± 0.045	992.961 ± 0.047	1478.3 ± 0.78	1507.5 ± 0.78	1529.6 ± 0.77	1545.2 ± 0.77
m1 = 0.125	1002.42 ± 0.042	1000.28 ± 0.042	997.197 ± 0.045	993.329 ± 0.047	1479.9 ± 0.78	1509 ± 0.78	1530.9 ± 0.77	1546.4 ± 0.77
m1 = 0.14	1002.81 ± 0.043	1000.66 ± 0.042	997.57 ± 0.044	993.697 ± 0.047	1481.5 ± 0.78	1510.4 ± 0.78	1532.2 ± 0.77	1547.6 ± 0.77
m1 = 0.155	1003.2 ± 0.043	1001.04 ± 0.042	997.943 ± 0.044	994.064 ± 0.047	1483.1 ± 0.78	1511.9 ± 0.78	1533.5 ± 0.77	1548.8 ± 0.77
m1 = 0.17	1003.59 ± 0.043	1001.42 ± 0.043	998.314 ± 0.044	994.429 ± 0.047	1484.6 ± 0.78	1513.3 ± 0.78	1534.8 ± 0.77	1550 ± 0.77
m1 = 0.185	1003.98 ± 0.043	1001.79 ± 0.043	998.684 ± 0.044	994.793 ± 0.047	1486.2 ± 0.78	1514.7 ± 0.78	1536.2 ± 0.77	1551.2 ± 0.77
m1 = 0.2	1004.36 ± 0.044	1002.17 ± 0.043	999.053 ± 0.044	995.156 ± 0.047	1487.8 ± 0.78	1516.1 ± 0.78	1537.5 ± 0.77	1552.4 ± 0.77

CC(N)C(=O)O (stereo not drawn) [DL-2-aminopropanoic acid] + O
Details	mass density, 288.15 K [kg/m3]	mass density, 298.15 K [kg/m3]	mass density, 308.15 K [kg/m3]	mass density, 318.15 K [kg/m3]	speed of sound, 288.15 K [m/s]	speed of sound, 298.15 K [m/s]	speed of sound, 308.15 K [m/s]	speed of sound, 318.15 K [m/s]
m1 = 0.04994	1000.59 ± 0.041	998.501 ± 0.043	995.455 ± 0.045	991.617 ± 0.048	1469.9 ± 0.78	1500 ± 0.78	1522.8 ± 0.77	1539.1 ± 0.77
m1 = 0.1499	1003.53 ± 0.043	1001.37 ± 0.043	998.271 ± 0.044	994.396 ± 0.047	1476.9 ± 0.79	1506.5 ± 0.78	1528.8 ± 0.77	1544.8 ± 0.77
m1 = 0.2597	1006.7 ± 0.045	1004.46 ± 0.044	1001.3 ± 0.044	997.395 ± 0.046	1484.5 ± 0.79	1513.5 ± 0.78	1535.4 ± 0.77	1551 ± 0.77
m1 = 0.4797	1012.86 ± 0.048	1010.48 ± 0.048	1007.21 ± 0.047	1003.23 ± 0.046	1499.3 ± 0.79	1527.4 ± 0.79	1548.3 ± 0.78	1563.2 ± 0.78
m1 = 0.6994	1018.78 ± 0.052	1016.26 ± 0.051	1012.89 ± 0.051	1008.84 ± 0.05	1513.8 ± 0.79	1540.8 ± 0.79	1560.9 ± 0.78	1575 ± 0.78
m1 = 0.9199	1024.51 ± 0.055	1021.85 ± 0.055	1018.39 ± 0.054	1014.26 ± 0.053	1528 ± 0.8	1553.9 ± 0.79	1573.2 ± 0.79	1586.5 ± 0.79
m1 = 1.138	1029.97 ± 0.059	1027.2 ± 0.058	1023.64 ± 0.057	1019.43 ± 0.056	1541.7 ± 0.8	1566.6 ± 0.8	1585 ± 0.79	1597.7 ± 0.79
m1 = 1.36	1035.33 ± 0.063	1032.43 ± 0.062	1028.77 ± 0.061	1024.51 ± 0.06	1555.1 ± 0.8	1579.1 ± 0.8	1596.7 ± 0.8	1608.7 ± 0.8
m1 = 1.577	1040.37 ± 0.066	1037.36 ± 0.065	1033.63 ± 0.064	1029.29 ± 0.063	1568 ± 0.81	1591 ± 0.81	1607.8 ± 0.8	1619.2 ± 0.8
m1 = 1.799	1045.37 ± 0.07	1042.26 ± 0.069	1038.42 ± 0.068	1034.03 ± 0.066	1580.7 ± 0.81	1602.7 ± 0.81	1618.9 ± 0.81	1629.5 ± 0.81
